Source: article PMC5567267, “Discovery of a potent protein kinase D inhibitor: insights in the binding mode of pyrazolo[3,4-d]pyrimidine analogues” (MedChemComm, 2017)
Like-named read-outs stand apart in the source and are kept apart here.

Key:
PKD2 [1] = target: T1, PKD2 (Homo sapiens, UniProt Q9BZL6); experiment: PKD2 screening assay (in vitro radiometric kinase assay); type: biochemical; conditions: for remaining activity at 1 µM: 10 min
T1 construct: made in house; host or cells: HEK293T cells, transient transfection with pDEST27-PRKD2, stimulated with 500 nM PDB before lysis
T1 sequence (Q9BZL6 1-878): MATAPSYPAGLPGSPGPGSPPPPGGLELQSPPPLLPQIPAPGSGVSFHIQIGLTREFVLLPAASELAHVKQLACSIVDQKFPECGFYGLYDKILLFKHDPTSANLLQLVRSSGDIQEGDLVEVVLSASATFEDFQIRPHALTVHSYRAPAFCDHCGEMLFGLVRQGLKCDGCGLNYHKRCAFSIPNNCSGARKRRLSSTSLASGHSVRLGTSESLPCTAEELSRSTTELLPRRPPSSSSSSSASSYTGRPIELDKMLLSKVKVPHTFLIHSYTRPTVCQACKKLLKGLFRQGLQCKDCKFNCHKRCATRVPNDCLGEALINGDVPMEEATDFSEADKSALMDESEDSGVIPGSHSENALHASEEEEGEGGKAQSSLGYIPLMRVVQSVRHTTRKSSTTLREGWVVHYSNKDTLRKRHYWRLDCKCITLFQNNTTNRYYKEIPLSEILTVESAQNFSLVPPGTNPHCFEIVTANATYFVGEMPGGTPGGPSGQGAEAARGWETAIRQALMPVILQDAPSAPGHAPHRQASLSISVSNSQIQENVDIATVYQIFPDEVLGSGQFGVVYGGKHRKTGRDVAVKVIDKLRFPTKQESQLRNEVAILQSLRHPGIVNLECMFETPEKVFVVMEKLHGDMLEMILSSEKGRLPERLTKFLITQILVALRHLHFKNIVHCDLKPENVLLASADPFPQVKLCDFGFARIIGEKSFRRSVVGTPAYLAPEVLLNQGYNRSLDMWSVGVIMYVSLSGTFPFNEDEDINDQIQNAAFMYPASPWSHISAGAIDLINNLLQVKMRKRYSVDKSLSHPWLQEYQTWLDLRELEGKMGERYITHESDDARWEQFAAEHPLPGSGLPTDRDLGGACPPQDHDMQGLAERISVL
Procedure: All 35 described analogues were characterized in vitro via an initial screening at 1 μM against PKD2. […]
scanning of a coomassie stained SDS-polyacrylamide gel.
An in vitro radiometric assay was used to determine the inhibition of PKD in presence of various compounds at a […]
determinations. Reactions were carried out in 40µl of a mixture containing 50mM Tris-HCl pH 7.4, 10mM MgCl2, 50ng of PDB stimulated GST-PKD2, 4µg/ml Syntide-2 (Sigma Aldrich, St. Louis, USA), 25µM ATP and 2µCi [γ-32P]ATP (Perkin-Elmer, Massachusetts, USA). After 10’ the reaction was stopped by spotting 30µl of the reaction on whatmann P81 filter paper. The filter papers were washed 3 times in 0.5% phosphoric acid, followed by one wash in 100% acetone. Subsequently the papers were air-dried and counted using the Tri-Carb 2810 TR scintillation counter (Perkin-Elmer). Percentage of PKD2 inhibition was determined relative to a condition where no inhibitor was added (0,1% dimethylsulfoxide (DMSO)). Graphs were plotted and IC50 values were determined using the GraphPad software package (Prism). […]

PKD2 [2] = target: T1, PKD2; experiment: Cellular screening assay using phospho-cortactin (Ser-298) as a readout; type: cell-based; conditions: HEK293T cells co-transfected with FLAG-PRKD2 and myc-CTTN; for cellular activity against PKD2 (in words): pSer-298 cortactin western blot; for inhibition at 40 µM: HEK-293T, 40 μM compound, 30 min pretreatment, 500 nM PDB 15 min, read-out: inhibition of PKD2 mediated cortactin Ser-298 phosphorylation
Description: Therefore we used a cellular assay in which we were able to specifically follow PKD mediated phosphorylation of cortactin, a known PKD substrate, at Ser-298.[15] […] Cortactin phosphorylation at Ser-298 in our assay was PKD-specific, since co-transfection of PKD and cortactin was necessary to produce an adequate signal (data not shown). We selected four compounds for further validation in a cellular assay against PKD2 (Fig. 5).
Fig. 5 The effect of 1-NM-PP1 analogues on PKD mediated phosphorylation of cortactin at Ser-298. HEK293T cells co-transfected with FLAG-PRKD2 and myc-CTTN were pretreated with the indicated compounds for 30 min prior to stimulation with 500 nM Phorbol 12,13-dibutyrate (PDB) for 15 min. Phosphorylation of cortactin was followed via western blot using a home-made pSer-298 antibody and subsequently reprobed for total cortactin (anti-c-Myc; 9E10) and PKD (anti-FLAG M2). Quantification of pSer-298/c-Myc signals of three independent experiments is shown in the graph below. […]
Cellular screening assay using phospho-cortactin as a readout
HEK293T cells were seeded in a 12-well plate at 150.000 cells/well. The next day, cells were transfected with 0.5µg of pcDNA3-Myc-CTTN and 0.5µg of pdcDNA-FLAG-PRKD2. Forty-eight hours after transfection, cells were incubated with compound at the indicated concentrations for 30 min, followed by stimulation with 500nM phorbol 12,13-dibutyrate (PDB) for 15 min. Subsequently, cells were lysed in 50mM Tris pH 7.4, 15mM EDTA, 150mM NaCl, 0.1% (v/v) NP-40 and 25% (v/v) glycerol. Protein quantitation was determined via a Bradford assay. Equal amounts of lysate (30µg) were loaded on a SDS-polyacrylamide gel and subjected to immunoblotting. Blots were probed with Cortactin pSer-298 antibody (home-made) and anti-tubulin antibody (Sigma, St. Louis, Missouri). Subsequently, blots were stripped and reprobed with anti-Myc 9E10 (Sigma, St.
Louis, Missouri) for cortactin and anti-FLAG M2 (Sigma, St. Louis, Missouri) for PKD2.

PKD = tested on: PKD; parameters: method as in Wang group; conditions: previously reported value; different assay setup and enzyme preparation; ref Wang group; cited from earlier work
[3] = ESI table, initial screening of all analogues at 1µM, read-out: % PKD2 activity remaining (1µM) (average ±SD)
[4] = compound at 1 μM, PDB stimulated GST-PKD2, Syntide-2, 25µM ATP, relative to no inhibitor (DMSO), read-out: % PKD 2 activity remaining (1 μM) (Average ± SD)
[5] = PDB stimulated GST-PKD2, Syntide-2, 25µM ATP, radiometric

Row | Compound | remaining activity at 1 µM (PKD2 [1]; [3]) [%] | remaining activity at 1 µM (PKD2 [1]; [4]) [%] | IC50 (PKD2 [1]; [5]) [nM] | cellular activity against PKD2 (in words) (PKD2 [2]) | inhibition at 40 µM (PKD2 [2]) [%] | IC50 (PKD) [nM] | fold increase in potency compared to 1-NM-PP1 (PKD2 [1]; PKD2 IC50 relative to 1-NM-PP1) [fold] | IC50 (PKD2 [1]; in vitro potency as stated in the conclusions) [nM]
1 | CC(C)(C)n1nc(Cc2cccc3ccccc23)c2c(N)ncnc21 [Compound 1, 1-tert-butyl-3-(1-naphthylmethyl)-1H-pyrazolo[3,4-d]pyrimidin-4-amine, reference compound] | 23 ± 1.7 | 23 ± 1.7 | 398 | dose-dependent inhibition | 50 | 133 |  | 
2 | CC(C)(C)n1nc(-c2cc3ccccc3s2)c2c(N)ncnc21 [Compound 6l] | 53 ± 7.1 | 53 ± 7.1 | 2210 | did not show cellular activity |  |  |  | 
3 | CCCCNc1nc(N)c2c(-c3cccc4ccccc34)nn(C(C)(C)C)c2n1 [Compound 13h, N6-butyl-1-tert-butyl-3-(1-naphthyl)-1H-pyrazolo[3,4-d]pyrimidine-4,6-diamine] | 89 ± 6.2 | 89 ± 6.2 | 8170 | negligible cellular activity |  |  |  | 
4 | CC(C)(C)n1nc(-c2c[nH]c3ccccc23)c2c(N)ncnc21 [Compound 18, 1-tert-butyl-3-(1H-indol-3-yl)-1H-pyrazolo[3,4-d]pyrimidin-4-amine] | 8 ± 0.8 | 8 ± 0.8 | 33 | dose-dependent inhibition | 85 |  | 10 | ~33
